Literature values in patent US20140107523A1, “MODEL FOR TRAUMATIC BRAIN INJURY” (University of Rochester, priority 2012, published 2014).

System: NMDA receptor
Settings: rats treated with the NMDA receptor blocker; spatial learning

N[C@@H](CCCP(=O)(O)O)C(=O)O [APV]
performance in the Morris water maze: perform poorly
